Reference: ChEMBL document CHEMBL4725491, “Staurosporine Analogs Via C-H Borylation” (ACS Med Chem Lett, 2020)

Key:
MDA-MB-231 = assay: Cytotoxicity against human MDA-MB-231 cells assessed as reduction in cell metabolic activity after 72 hrs by MTS assay; type: functional, cell-based; conditions: MDA-MB-231, 72 h
[1] = Cytotoxicity against human HMLE cells assessed as reduction in cell metabolic activity after 72 hrs by MTS assay; type: ADME, cell-based

Row | Compound | IC50 (MDA-MB-231) [nM] | IC50 [1] [nM]
1 | CN[C@@H]1C[C@H]2O[C@@](C)([C@@H]1OC)n1c3cc(O)ccc3c3c4c(c5c6ccccc6n2c5c31)C(=O)NC4 | 3.4 | 58.7
2 | CN[C@@H]1C[C@H]2O[C@@](C)([C@@H]1OC)n1c3ccc(O)cc3c3c4c(c5c6ccccc6n2c5c31)C(=O)NC4 | 2 | 27.5
3 | CN[C@@H]1C[C@H]2O[C@@](C)([C@@H]1OC)n1c3ccccc3c3c4c(c5c6ccccc6n2c5c31)C(=O)NC4 [STAUROSPORINE] | 2.5 | –
